The source of these data is patent publication US10253080B2, “Glucagon-like-peptide-2 (GLP-2) analogues” (Zealand Pharma A/S, priority 2012, dated 2019).

Non-standard residues stand in square brackets, D forms with d. Residues, ends and D or L forms follow the SMILES beside them. Aib = CC(C)(N)C(=O)O

In one series the target is T1, human GLP-1 receptor (Homo sapiens, UniProt P43220).
T1 construct: expressed in transfected cells; host or cells: HEK293
The experiment in a line: GLP-1 receptor efficacy assay (cAMP AlphaScreen). It counts as cell-based. Particulars: HEK293 cells expressing human GLP-1R, cAMP response. As for the experimental part:
The 5′-end primers additionally encoded a near Kozak consensus sequence to ensure efficient translation. […] 48 hours after transfection, cells were seeded for limited dilution cloning and selected with 1 mg/ml G418 in the culture medium.
(§1) Data from test compounds eliciting an increase in the intracellular level of cAMP were normalized relative to the positive and negative control (vehicle) to calculate the EC50 and maximal response from the concentration response curve.
For orientation: Alpha assays give light when donor and acceptor beads are brought close together.

A short description of series [1]: Oral glucose tolerance test (OGTT) in normal mice. The format is in vivo, C57BL/6J male mice. Particulars: single SC dose 1 h before 2 g/kg oral glucose; vs vehicle; FIG. 2. As to the method:
Normal chow-fed C57BL/6J male mice were used. The mice were kept in standard housing conditions (light-, temperature-, and humidity-controlled room (12:12 h light-dark cycle, with lights on at 06.00-18.00 h; 24° C.; 50% relative humidity)), and each dosing group consisted of 10 animals.
Prior to the oral glucose tolerance test (OGTT), animals were fasted for 5 h. One hour before glucose challenge (time t=−60 min) baseline blood glucose was measured. Immediately after the blood sample, the animals were dosed once subcutaneously with compound at the indicated amount or PBS (vehicle). One hour later at t=0 min, a 2 g/kg oral gavage of glucose (0.4 g/ml in water diluted from glucose SAD […]; dose volume 5 ml/kg) was given to the animals. After glucose administration, tail vein blood was drawn for glucose measurements at t=15, 30, 60, 120 min.

Series [2] in a line: Effect in diet-induced obese mice (intestinal mass, glucose homeostasis). The format is in vivo, C57BL/6J male mice. Particulars: SC twice daily for 14 days. As to the method:
Diet-induced obesity was generated by feeding C57BL/6J male mice with high fat diet (Research Diet 60% fat (D12492) Research Diet Inc., New Brunswick, USA). The mice were kept in standard housing conditions (light-, temperature-, and humidity-controlled room (12:12 h light-dark cycle, with lights on at 06.00-18.00 h; 24° C.; 50% relative humidity)).
The vehicle treated dosing group contained 8 animals and the compound 7 treated groups consisted of 12 animals/group. All animals were mock treated for 7 days (once daily, SC, 100 μl vehicle) to acclimatize the animals to handling and injections, followed by treatment (vehicle or compound 7) for 14 days (twice daily, SC, 5 ml/kg). Animals were fasted overnight (day 11-12) and blood was drawn for analysis of glucose and insulin. On day 14, animals were sacrificed and small and large intestines removed, washed and weighed.

Series [3] in a line: Effect on intestinal weight in normal rats. The format is in vivo, Wistar male rats. Particulars: SC once daily for four days, weighed day 5; FIG. 3. As for the experimental part:
Normal chow-fed Wistar male rats were used. The rats were kept in standard housing conditions (light-, temperature-, and humidity-controlled room (12:12 h light-dark cycle, with lights on at 06.00-18.00 h; 24° C.; 50% relative humidity)), and each dosing group consisted of 6 animals. Rats were dosed once daily via the subcutaneous route, for four days with compound at the indicated amount or PBS (vehicle). On day five, rats were sacrificed and small intestinal weight wet measured.

A further series deals with T2, human GLP-2 receptor (Homo sapiens, UniProt O95838, D470N).
T2 construct: host or cells: HEK293
T2 sequence (O95838 1-553 D470N): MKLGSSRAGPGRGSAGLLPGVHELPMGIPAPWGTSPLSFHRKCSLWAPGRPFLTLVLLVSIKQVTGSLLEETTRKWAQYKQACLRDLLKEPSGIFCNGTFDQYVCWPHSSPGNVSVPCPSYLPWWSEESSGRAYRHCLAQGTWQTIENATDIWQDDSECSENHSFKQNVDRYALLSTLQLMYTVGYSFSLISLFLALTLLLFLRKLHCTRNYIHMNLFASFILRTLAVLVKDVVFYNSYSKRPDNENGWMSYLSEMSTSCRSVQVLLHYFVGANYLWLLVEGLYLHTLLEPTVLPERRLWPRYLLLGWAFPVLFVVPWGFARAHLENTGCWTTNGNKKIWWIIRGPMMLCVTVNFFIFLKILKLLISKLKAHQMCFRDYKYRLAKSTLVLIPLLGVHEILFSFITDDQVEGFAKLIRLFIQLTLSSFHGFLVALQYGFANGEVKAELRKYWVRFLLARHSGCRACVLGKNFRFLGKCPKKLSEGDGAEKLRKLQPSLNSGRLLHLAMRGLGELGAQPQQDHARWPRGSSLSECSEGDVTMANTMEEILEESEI
Description: GLP-2 receptor efficacy assay (cAMP AlphaScreen). The format is cell-based. Particulars: HEK293 cells expressing hGLP-2 receptor, cAMP response; read-out: GLP-2R EC50. As to the method:
Test compounds inducing an increase in the intracellular level of cAMP were tested in this assay, and the response normalized relative to a positive and negative control to calculate the EC50 and maximal response from the concentration response curve.
The hGLP2-R was purchased from MRC-geneservice, Babraham, Cambridge as an image clone: 5363415 (11924-117). For subcloning into an mammalian expression vector, primers for subcloning were obtained from DNA-Technology, Risskov, Denmark. The 5′ and 3′ primers used for the PCR reaction include terminal restriction sites for cloning and the context of the 5′ primer is modified to a Kozak consensus without changing the sequence of the product encoded by the ORF. A standard PCR reaction was run using image clone 5363415 (11924-117) as a template with the above mentioned primers and Polymerase Herculase II Fusion in a total vol, of 50 μl. The generated PCR product was purified using GFX PCR and Gel band purification kit, digested with restriction enzymes and cloned into the mammalian expression vector using Rapid DNA Ligation Kit. Ligation reaction was transformed to XL10 Gold Ultracompetent cells and colonies were picked for DNA production using Endofree Plasmid maxi kit. Subsequent sequence analysis was conducted by MWG Eurofins, Germany.
HEK293 cells were transfected using the Lipofectamine PLUS transfection method. The day before transfection, HEK293 cells were seeded in two T75 flasks at a density of 2×10^6 cells/T75 flask in cell culturing medium without antibiotics. On the day of transfection, cells were washed with 1×DPBS and medium was replaced with Optimem to a volume of 5 mL/T75 flask before addition of Lipofectamine-plasmid complexes were added gently and drop wise to the cells in T75 flasks and replaced with growth medium after 3 hours and again to growth medium supplemented with 500 μg/mL G418 after 24 hours. After 4 weeks in G418 selection, colonies were picked and tested in a functional assay. One colony was selected for use in compound profiling.
as §1

The conditions of series [4]: DPP IV degradation and renal clearance (Tavares et al. 2000); cited from earlier work.
In series [5] the target is human GLP-2 receptor (hGLP2-R), splice variant rs17681684 (human, UniProt O95838). The experiment in a line: cell-based or functional assay.

As a reminder, the EC50 is the concentration needed to bring the measured effect to its halfway point.

T1 sequence (P43220 24-463): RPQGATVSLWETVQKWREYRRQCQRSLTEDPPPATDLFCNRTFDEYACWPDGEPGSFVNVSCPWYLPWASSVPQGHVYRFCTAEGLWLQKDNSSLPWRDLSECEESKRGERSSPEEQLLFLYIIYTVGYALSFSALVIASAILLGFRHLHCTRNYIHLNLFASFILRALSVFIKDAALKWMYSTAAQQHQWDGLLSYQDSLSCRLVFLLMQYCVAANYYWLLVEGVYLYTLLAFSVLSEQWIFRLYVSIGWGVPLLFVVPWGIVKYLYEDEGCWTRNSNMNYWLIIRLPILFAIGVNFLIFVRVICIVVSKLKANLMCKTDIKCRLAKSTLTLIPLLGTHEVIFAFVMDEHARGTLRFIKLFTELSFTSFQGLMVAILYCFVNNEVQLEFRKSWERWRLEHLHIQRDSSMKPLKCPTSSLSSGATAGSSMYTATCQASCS

At human GLP-1 receptor, `CC[C@H](C)[C@H](NC(=O)[C@H](Cc1ccccc1)NC(=O)[C@H](CC(=O)O)NC(=O)[C@H](CCCNC(=N)N)NC(=O)[C@H](C)NC(=O)[C@H](C)NC(=O)[C@H](CCCCN)NC(=O)CNC(=O)[C@H](CC(=O)O)NC(=O)[C@H](CC(C)C)NC(=O)[C@@H](NC(=O)[C@@H](NC(=O)[C@H](CC(N)=O)NC(=O)[C@H](CC(C)C)NC(=O)[C@H](CCC(=O)O)NC(=O)[C@H](CC(=O)O)NC(=O)[C@H](CO)NC(=O)[C@H](Cc1ccccc1)NC(=O)[C@H](CO)NC(=O)CNC(=O)[C@H](CC(=O)O)NC(=O)C(C)(C)NC(=O)[C@@H](N)Cc1c[nH]cn1)[C@@H](C)O)[C@@H](C)CC)C(=O)N[C@@H](CC(N)=O)C(=O)N[C@@H](Cc1c[nH]c2ccccc12)C(=O)N[C@@H](CC(C)C)C(=O)N[C@H](C(=O)N[C@@H](CCC(N)=O)C(=O)N[C@H](C(=O)N[C@@H](CCCCN)C(N)=O)[C@@H](C)O)[C@@H](C)CC` [Compound 10] (H-H[Aib]DGSFSDELNTILDGKAARDFINWLIQTK-NH2) had a concentration giving a half-maximal response (EC50) of 0.03 nM. As to `CC[C@H](C)[C@H](NC(=O)[C@H](Cc1ccccc1)NC(=O)[C@H](CC(=O)O)NC(=O)[C@H](CCCNC(=N)N)NC(=O)[C@H](C)NC(=O)[C@H](C)NC(=O)[C@H](CC(C)C)NC(=O)[C@H](CC(N)=O)NC(=O)[C@H](CC(=O)O)NC(=O)[C@H](CC(C)C)NC(=O)[C@@H](NC(=O)[C@@H](NC(=O)[C@H](CC(N)=O)NC(=O)[C@H](CCSC)NC(=O)[C@H](CCC(=O)O)NC(=O)[C@H](CC(=O)O)NC(=O)[C@H](CO)NC(=O)[C@H](Cc1ccccc1)NC(=O)[C@H](CO)NC(=O)CNC(=O)[C@H](CC(=O)O)NC(=O)CNC(=O)[C@@H](N)Cc1c[nH]cn1)[C@@H](C)O)[C@@H](C)CC)C(=O)N[C@@H](CC(N)=O)C(=O)N[C@@H](Cc1c[nH]c2ccccc12)C(=O)N[C@@H](CC(C)C)C(=O)N[C@H](C(=O)N[C@@H](CCC(N)=O)C(=O)N[C@H](C(=O)N[C@@H](CCCCN)C(=O)N[C@H](C(=O)N[C@H](C(=O)N[C@@H](CC(=O)O)C(=O)O)[C@@H](C)O)[C@@H](C)CC)[C@@H](C)O)[C@@H](C)CC` [GLP-2 (Gly2), reference compound], the 50% effective concentration (EC50) at human GLP-1 receptor was more than 200 nM. As to “H-HGDGSFSDEMNTILDGQAARDFINWLIQTK-NH2 [Compound 3]”, at human GLP-1 receptor, the EC50 was 9 nM. With “H-HGDGSFSDEMNTILDGQAARDFINWLIQTK-NH2 [Compound 12]”, on human GLP-1 receptor, the EC50 amounted to 0.07 nM. In addition, the “blood glucose response in OGTT” value in series [1] is reported as “significantly reduced the blood glucose response”. Take “H-HGDGSFSSELATILDGKAARDFINWLIQTKITD-OH [Compound 7] [listing 1 of 2 here]”: the fasting blood glucose entry in series [2] (overnight fast day 11-12, vs vehicle, FIG. 5A) was “reduced”. In addition, in series [2] (overnight fast day 11-12, vs vehicle, FIG. 5B), the “fasting plasma insulin levels” value is “reduced”. The small intestinal mass result in series [2] (vs vehicle, FIG. 4A) was “significantly increased”. Further, in series [2] (vs vehicle, FIG. 4B), the large intestinal mass entry is given as “significantly increased”. In addition, in series [2] (vs vehicle, FIG. 5C), the HOMA-IR index result is reported as “lower HOMA-IR index than vehicle treated controls”. For the same molecule, the “small intestinal wet weight” value in series [3] is given as “increased intestinal weight in a dose dependant manner”. The EC50 at human GLP-1 receptor turned out to be 0.78 nM. Consider “H-HGDGSFSSELATILDGKAARDFINWLIQTKITD-OH [Compound 7] [listing 2 of 2 here]”, for which the EC50 at human GLP-2 receptor stood at 0.2 nM. Turning to “H-HGDGSFSSELATILDGQAARDFIAWLIQTKITD-OH [Compound 11] [listing 1 of 2 here]”, on human GLP-1 receptor, the concentration for a half-maximal effect (EC50) is 0.34 nM.

Regarding “H-HGDGSFSSELATILDGQAARDFIAWLIQTKITD-OH [Compound 11] [listing 2 of 2 here]”, at human GLP-2 receptor, the concentration for a half-maximal effect (EC50) was determined as 0.2 nM. At human GLP-1 receptor, “H-HGDGSFSSEMNTILDSQAARDFINWLIQTKITD-OH [Compound 4] [listing 1 of 2 here]” gave an EC50 of 25 nM. For “H-HGDGSFSSEMNTILDSQAARDFINWLIQTKITD-OH [Compound 4] [listing 2 of 2 here]”, the EC50 on human GLP-2 receptor came out at 0.06 nM.

Turning to “H-HGEGSFSSDLSTILEGKAARDFIEWLIQTKITD-OH [Compound 13] [listing 1 of 2 here]”, the EC50 on human GLP-1 receptor is 18 nM. “H-HGEGSFSSDLSTILEGKAARDFIEWLIQTKITD-OH [Compound 13] [listing 2 of 2 here]”: at human GLP-2 receptor, the EC50 was determined as 0.1 nM.

As for “H-HGEGSFSSDLSTILENKAARDFIEWLIQTKITD-OH [Compound 9] [listing 1 of 2 here]”, the half-maximal effective concentration (EC50) on human GLP-1 receptor turned out to be 9.1 nM. On to “H-HGEGSFSSDLSTILENKAARDFIEWLIQTKITD-OH [Compound 9] [listing 2 of 2 here]”, for which the EC50 on human GLP-2 receptor is 0.2 nM. On human GLP-1 receptor, “H-HGEGTFTSDLSKQMEGQAVRDFIEWLIQTKITD-OH [Compound 5] [listing 1 of 2 here]” came in with an EC50 of 1 nM.

Regarding “H-HGEGTFTSDLSKQMEGQAVRDFIEWLIQTKITD-OH [Compound 5] [listing 2 of 2 here]”, the 50% effective concentration (EC50) at human GLP-2 receptor is 0.2 nM. As for “H-HGEGTFTSDLSKQMESKAARDFIEWLIQTKITD-OH [Compound 6]”, the EC50 on human GLP-2 receptor stood at 0.2 nM. The molecule “H-HGEGTFTSDLSTILENKAARDFIEWLIQTKITD-OH [Compound 8] [listing 1 of 2 here]” registered a 50% effective concentration (EC50) at human GLP-1 receptor of 16 nM. As to “H-HGEGTFTSDLSTILENKAARDFIEWLIQTKITD-OH [Compound 8] [listing 2 of 2 here]”, the half-maximal effective concentration (EC50) on human GLP-2 receptor was determined as 0.008 nM. For the molecule “His-Ala-Asp-Gly-Ser-Phe-Ser-Asp-Glu-Met-Asn-Thr-Ile-Leu-Asp-Asn-Leu-Ala-Ala-Arg-Asp-Phe-Ile-Asn-Trp-Leu-Ile-Gln-Thr-Lys-Ile-Thr-Asp [GLP-2(1-33)]”, the half life result in series [4] is recorded as “about 7 minutes”. Turning to HDEFERHAEGTFTSDVSSYLEGQAAKEFIAWLVKGRG [GLP-1], in series [5], the “GLP-2R EC50 (nM), cAMP AlphaScreen” value is more than 1000 nM.
